# Laboratory results reported in paper PMC11868595, “Safety, pharmacokinetics and efficacy of HA121-28 in patients with advanced solid tumors and RET fusion-positive non-small-cell lung cancer: a multicenter, open-label, single-arm phase 1/2 trial” (Signal Transduction and Targeted Therapy, 2025).
# Read-outs that look alike come from different tables or passages of the source. Marks after values point to notes of the source that are not given here.
# What was measured:
# [1] = test system: human gastric cancer SGC-7901 tumors; test: SGC-7901 tumors in nude mice; assay type: in vivo
# Text: (§1) was higher than that of vandetanib .
# as §1
# Table S16. Efficacy of HA121-28 on human gastric cancer SGC-7901 tumors
# [2] = test system: human esophageal cancer KYSE-150 xenografts; test: KYSE-150 xenografts in nude mice; assay type: in vivo
# [3] = test system: human esophageal cancer ECA-109 tumors; test: ECA-109 tumors in nude mice; assay type: in vivo; settings: 8 mg/kg
# [4] = test system: RET fusion-positive NSCLC; settings: cited from earlier work
# [5] = test system: TT cells; test: Tumor cell proliferation in vitro; assay type: cell-based, human; settings: Homo sapiens
# [6] = test system: human melanoma A375 tumors; test: A375 tumors in nude mice; assay type: in vivo
# [7] = test system: VEGFR and ERK activation; test: VEGF165-stimulated activation of VEGFR and ERK in HUVEC cells; assay type: cell-based, human; settings: 50 ng/mL VEGF165, concentration-dependent
# [8] = test system: 8305C cells; test: Tumor cell proliferation in vitro; assay type: cell-based; settings: Homo sapiens
# [9] = test system: CFPAC-1 cells; test: Tumor cell proliferation in vitro; assay type: cell-based; settings: Homo sapiens
# [10] = test system: KYSE-150 cells; test: Tumor cell proliferation in vitro; assay type: cell-based, human; settings: Homo sapiens, KYSE-150; read-out: IC50, proliferation
# [11] = ref Phase I clinical study results of vandetanib; cited from earlier work
# [12] = test system: A431 cells; test: Tumor cell proliferation in vitro; assay type: cell-based, human; settings: Homo sapiens, A-431, read-out: IC50, proliferation
# [13] = test system: SGC-7901 cells; test: Tumor cell proliferation in vitro; assay type: cell-based, human; settings: Homo sapiens, SGC-7901; SGC7901
# [14] = test system: HCT116 cells; test: Tumor cell proliferation in vitro; assay type: cell-based; settings: Homo sapiens, HCT-116
# [15] = test system: A375 cells; test: Tumor cell proliferation in vitro; assay type: cell-based, human; settings: Homo sapiens, A-375
# [16] = test system: A498 cells; test: Tumor cell proliferation in vitro; assay type: cell-based; settings: Homo sapiens
# [17] = test system: EGFR and ERK activation; test: EGF-stimulated activation of EGFR and ERK in A431 cells; assay type: cell-based, human; settings: 10 ng/mL EGF, concentration-dependent
# [18] = test system: HUVEC cells; test: cells; settings: Homo sapiens
# [19] = test system: human thyroid cancer TT tumors; test: TT tumors in nude mice; assay type: in vivo; settings: TT tumors
# Text: as §1, §1
# Table S15. Efficacy of HA121-28 on human thyroid cancer TT tumors
# [20] = test system: BEL-7402 cells; test: Tumor cell proliferation in vitro; assay type: cell-based; settings: Homo sapiens, Bel-7402; read-out: IC50, proliferation
smiles,measurement,setting,value
N#CC1(c2ccc(NC(=O)c3cccnc3NCc3ccncc3)cc2)CCCC1 [Apatinib],RTV ±SD,[1]; 200 mg/kg,4.2±1.2
same,T/C,[1]; 200 mg/kg,26.5%
same,Terminal Tumor Volume,[1]; 200 mg/kg,793.5±324.4** mm^3
N.N.[Cl][Pt][Cl] [Cisplatin],RTV X±SD,[2]; 10 mg/kg,5.0±3.9
same,T/C,[2]; 10 mg/kg,32.6%
same,Terminal Tumor Volume,[2]; 10 mg/kg,694.4±237.4** mm^3
same,RTV ±SD,[3],6.4±2.9
same,T/C,[3],62.0%
same,Terminal Tumor Volume,[3],"1,580.0±952.4 mm^3"
CO[C@]1(C(=O)N[C@@H](C)c2ccc(-n3cc(F)cn3)nc2)CC[C@H](c2nc(C)cc(Nc3cc(C)[nH]n3)n2)CC1 [Pralsetinib],ORR,[4]; platinum-pretreated patients ref 38,61%
COc1ccc(CN2C3CC2CN(c2ccc(-c4cc(OCC(C)(C)O)cn5ncc(C#N)c45)cn2)C3)cn1 [Selpercatinib],ORR,[4]; platinum-pretreated patients ref 37,61%
"COc1cc2c(Nc3ccc(Br)cc3F)ncnc2cc1OCC1CCN(C)CC1 [vandetanib, reference compound]",IC50,[5],3.57 ± 0.0382 µM
same,RTV ±SD,[6]; 12.5 mg/kg,22.1±17.2
same,T/C,[6]; 12.5 mg/kg,108.1%
same,Terminal Tumor Volume,[6]; 12.5 mg/kg,2824.1±1001.2 mm^3
same,RTV ±SD,[6]; 25 mg/kg,11.4±4.7
same,T/C,[6]; 25 mg/kg,55.7%
same,Terminal Tumor Volume,[6]; 25 mg/kg,1719.9±822.4 mm^3
same,RTV ±SD,[6]; 50 mg/kg,7.2±1.4
same,T/C,[6]; 50 mg/kg,35.0%
same,activation of VEGFR and downstream ERK,[7],significantly inhibited
same,IC50,[8],1.25 ± 0.0963 µM
same,RTV ±SD,[1]; 50 mg/kg,3.6±1.7
same,T/C,[1]; 50 mg/kg,23.0%
same,Terminal Tumor Volume,[1]; 50 mg/kg,690.9±259.8** mm^3
same,RTV ±SD,[1]; 75 mg/kg,2.3±1.0
same,T/C,[1]; 75 mg/kg,14.3%
same,Terminal Tumor Volume,[1]; 75 mg/kg,486.9±221.2** mm^3
same,IC50,[9],0.336 ± 0.01 µM
same,IC50,[10],1.5 ± 0.135 µM
same,MTD,[11],500 mg/day
same,IC50,[12],1.14 ± 0.255 µM
same,IC50,[13],4.37 ± 0.441 µM
same,IC50,[14],3.19 ± 0.688 µM
same,IC50,[15],2.19 ± 0.318 µM
same,RTV X±SD,[2]; 12.5 mg/kg,5.2±1.9
same,T/C,[2]; 12.5 mg/kg,34.2%
same,Terminal Tumor Volume,[2]; 12.5 mg/kg,847.0±247.2** mm^3
same,RTV X±SD,[2]; 25 mg/kg,2.6±0.7
same,T/C,[2]; 25 mg/kg,16.8%
same,Terminal Tumor Volume,[2]; 25 mg/kg,489.8±273.9** mm^3
same,RTV X±SD,[2]; 50 mg/kg,1.3±0.6
same,T/C,[2]; 50 mg/kg,8.4%
same,Terminal Tumor Volume,[2]; 50 mg/kg,273.9±189.8** mm^3
same,IC50,[16],1.03 ± 0.0427 µM
same,activation of EGFR and downstream ERK,[17],significantly inhibited
same,IC50,[18],0.117 µM
same,RTV ±SD,[19]; 25 mg/kg,2.1±1.0
same,T/C,[19]; 25 mg/kg,34.1%
same,Terminal Tumor Volume,[19]; 25 mg/kg,302.4±91.1** mm^3
same,RTV ±SD,[19]; 50 mg/kg,1.0±0.4
same,T/C,[19]; 50 mg/kg,17.0%
same,Terminal Tumor Volume,[19]; 50 mg/kg,155.5±82.1** mm^3
same,RTV ±SD,[19]; 75 mg/kg,0.5±0.2
same,T/C,[19]; 75 mg/kg,8.9%
same,Terminal Tumor Volume,[19]; 75 mg/kg,100.1±62.5** mm^3
same,IC50,[20],15.1 ± 1.13 µM
